{"source": "ChEMBL document CHEMBL1201862", "about": "“PubChem BioAssay data set” (2004)", "test_in_all_cases": "NCI tumour cell line growth inhibition, 48 h", "key": {"[1]": {"system": "786-0"}, "[2]": {"system": "A498"}, "[3]": {"system": "A549"}, "[4]": {"system": "ACHN"}, "[5]": {"system": "BT-549"}, "[6]": {"system": "CAKI-1"}, "[7]": {"system": "CCRF-CEM"}, "[8]": {"system": "COLO 205"}, "[9]": {"system": "DU-145"}, "[10]": {"system": "EKVX"}, "[11]": {"system": "HCC 2998"}, "[12]": {"system": "HCT-116"}, "[13]": {"system": "HCT-15"}, "[14]": {"system": "HL-60"}, "[15]": {"system": "HOP-92"}, "[16]": {"system": "HT-29"}, "[17]": {"system": "Hs-578T"}, "[18]": {"system": "IGROV-1"}, "[19]": {"system": "K562"}, "[20]": {"system": "KM12"}, "[21]": {"system": "LOX IMVI"}, "[22]": {"system": "M14"}, "[23]": {"system": "MCF7"}, "[24]": {"system": "MDA-MB-231"}, "[25]": {"system": "MDA-MB-435"}, "[26]": {"system": "MDA-N"}, "[27]": {"system": "MOLT-4"}, "[28]": {"system": "Malme-3M"}, "[29]": {"system": "NCI-H226"}, "[30]": {"system": "NCI-H23"}, "[31]": {"system": "NCI-H522"}, "[32]": {"system": "NCI/ADR-RES"}, "[33]": {"system": "OVCAR-3"}, "[34]": {"system": "OVCAR-4"}, "[35]": {"system": "OVCAR-5"}, "[36]": {"system": "OVCAR-8"}, "[37]": {"system": "PC-3"}, "[38]": {"system": "RPMI-8226"}, "[39]": {"system": "SF-268"}, "[40]": {"system": "SF-539"}, "[41]": {"system": "SK-MEL-28"}, "[42]": {"system": "SK-MEL-2"}, "[43]": {"system": "SK-MEL-5"}, "[44]": {"system": "SK-OV-3"}, "[45]": {"system": "SNB-19"}, "[46]": {"system": "SNB-75"}, "[47]": {"system": "SR"}, "[48]": {"system": "SW-620"}, "[49]": {"system": "TK-10"}, "[50]": {"system": "U-251"}, "[51]": {"system": "UACC-257"}, "[52]": {"system": "UACC-62"}, "[53]": {"system": "UO-31"}}, "note": "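Cells were grown in 96-well plates and exposed to each compound for 48 hours at five concentrations; endpoints were interpolated linearly between bracketing concentrations, or set to the highest concentration if not reached. GI50 = concentration required for 50% inhibition of growth.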 Active and inactive are the calls of the source. Rule as the data show it: active = GI50 up to about 1.1 µM and inactive = higher."}
{"smiles": "C/C(=N\\NC(N)=O)C(CN1CCOCC1)C(c1ccccc1)c1c(O)c2ccccc2oc1=O", "note": "(stereo not drawn)", "values": [{"measurement": "GI50", "setting": "[1]", "value": "> 100 µM (inactive)"}, {"measurement": "GI50", "setting": "[2]", "value": "8.63 µM (inactive)"}, {"measurement": "GI50", "setting": "[3]", "value": "> 100 µM (inactive)"}, {"measurement": "GI50", "setting": "[4]", "value": "> 100 µM (inactive)"}, {"measurement": "GI50", "setting": "[5]", "value": "> 100 µM (inactive)"}, {"measurement": "GI50", "setting": "[6]", "value": "> 100 µM (inactive)"}, {"measurement": "GI50", "setting": "[7]", "value": "> 100 µM (inactive)"}, {"measurement": "GI50", "setting": "[8]", "value": "> 100 µM (inactive)"}, {"measurement": "GI50", "setting": "[9]", "value": "> 100 µM (inactive)"}, {"measurement": "GI50", "setting": "[10]", "value": "> 100 µM (inactive)"}, {"measurement": "GI50", "setting": "[11]", "value": "> 100 µM (inactive)"}, {"measurement": "GI50", "setting": "[12]", "value": "> 100 µM (inactive)"}, {"measurement": "GI50", "setting": "[13]", "value": "> 100", "unit": "µM"}, {"measurement": "GI50", "setting": "[14]", "value": "> 100 µM (inactive)"}, {"measurement": "GI50", "setting": "[15]", "value": "> 100 µM (inactive)"}, {"measurement": "GI50", "setting": "[16]", "value": "> 100 µM (inactive)"}, {"measurement": "GI50", "setting": "[17]", "value": "> 100 µM (inactive)"}, {"measurement": "GI50", "setting": "[18]", "value": "> 100 µM (inactive)"}, {"measurement": "GI50", "setting": "[19]", "value": "> 100 µM (inactive)"}, {"measurement": "GI50", "setting": "[20]", "value": "> 100 µM (inactive)"}, {"measurement": "GI50", "setting": "[21]", "value": "> 100 µM (inactive)"}, {"measurement": "GI50", "setting": "[22]", "value": "> 100 µM (inactive)"}, {"measurement": "GI50", "setting": "[23]", "value": "> 100 µM (inactive)"}, {"measurement": "GI50", "setting": "[24]", "value": "> 100 µM (inactive)"}, {"measurement": "GI50", "setting": "[25]", "value": "> 100 µM (inactive)"}, {"measurement": "GI50", "setting": "[26]", "value": "> 100 µM (inactive)"}, {"measurement": "GI50", "setting": "[27]", "value": "> 100 µM (inactive)"}, {"measurement": "GI50", "setting": "[28]", "value": "> 100 µM (inactive)"}, {"measurement": "GI50", "setting": "[29]", "value": "> 100 µM (inactive)"}, {"measurement": "GI50", "setting": "[30]", "value": "> 100 µM (inactive)"}, {"measurement": "GI50", "setting": "[31]", "value": "> 100 µM (inactive)"}, {"measurement": "GI50", "setting": "[32]", "value": "> 100 µM (inactive)"}, {"measurement": "GI50", "setting": "[33]", "value": "> 100 µM (inactive)"}, {"measurement": "GI50", "setting": "[34]", "value": "> 100 µM (inactive)"}, {"measurement": "GI50", "setting": "[35]", "value": "> 100 µM (inactive)"}, {"measurement": "GI50", "setting": "[36]", "value": "> 100 µM (inactive)"}, {"measurement": "GI50", "setting": "[37]", "value": "> 100 µM (inactive)"}, {"measurement": "GI50", "setting": "[38]", "value": "> 100 µM (inactive)"}, {"measurement": "GI50", "setting": "[39]", "value": "> 100 µM (inactive)"}, {"measurement": "GI50", "setting": "[40]", "value": "> 100 µM (inactive)"}, {"measurement": "GI50", "setting": "[41]", "value": "> 100 µM (inactive)"}, {"measurement": "GI50", "setting": "[42]", "value": "> 100 µM (inactive)"}, {"measurement": "GI50", "setting": "[43]", "value": "> 100 µM (inactive)"}, {"measurement": "GI50", "setting": "[44]", "value": "> 100 µM (inactive)"}, {"measurement": "GI50", "setting": "[45]", "value": "> 100 µM (inactive)"}, {"measurement": "GI50", "setting": "[46]", "value": "> 100 µM (inactive)"}, {"measurement": "GI50", "setting": "[47]", "value": "> 100 µM (inactive)"}, {"measurement": "GI50", "setting": "[48]", "value": "> 100 µM (inactive)"}, {"measurement": "GI50", "setting": "[49]", "value": "> 100 µM (inactive)"}, {"measurement": "GI50", "setting": "[50]", "value": "> 100 µM (inactive)"}, {"measurement": "GI50", "setting": "[51]", "value": "> 100 µM (inactive)"}, {"measurement": "GI50", "setting": "[52]", "value": "> 100 µM (inactive)"}, {"measurement": "GI50", "setting": "[53]", "value": "> 100 µM (inactive)"}]}
